The values below come from ChEMBL document CHEMBL1130066, “Toward a novel metal-based chemotherapy against tropical diseases. 3. Synthesis and antimalarial activity in vitro and in vivo of the new gold-chloroquine complex [Au(PPh3)(CQ)]PF6” (J Med Chem, 1997).

In experiment [1] the test system is Mus musculus. As to the kind of experiment: In vivo activity against Plasmodium berghei parasitaemia. The format is functional.
Experiment [2] deals with Plasmodium falciparum. As to the kind of experiment: In vitro growth inhibition as IC50 against chloroquine-resistant Plasmodium falciparum FcB2. The experiment is classed as functional, organism-based.
Experiment [3] deals with Plasmodium falciparum. Kind of experiment: In vitro growth inhibition as IC50 against chloroquine-resistant Plasmodium falciparum FcB1. The experiment is classed as functional, organism-based.
Experiment [4] relates to Mus musculus. Kind of experiment: In vivo activity against Plasmodium berghei parasitaemia. The experiment is classed as functional, organism-based.

The compound `CCN(CC)CCCC(C)Nc1ccnc2cc(Cl)ccc12.O=P(O)(O)O.O=P(O)(O)O` (centres undefined) [CHLOROQUINE PHOSPHATE] showed a Parasitemia in experiment [1] of 25%.
As to “4N-(4-diethylamino-1-methylbutyl)-7-chloro-4-quinolinamine 1-N-[Au(PPh3)] compound with PF6- [listing 1 of 2 here]”, the half-maximal inhibitory concentration (IC50) (in general, the point on the concentration scale where inhibition reaches its midpoint) in experiment [2] is 23 nM; in experiment [3] it was 5.1 nM.
For the compound “4N-(4-diethylamino-1-methylbutyl)-7-chloro-4-quinolinamine 1-N-[Au(PPh3)] compound with PF6- [listing 2 of 2 here]”, the Parasitemia in experiment [4] came to 7%.
